In patent publication US20250017856A1, “CO-FORMULATION AND CO-DELIVERY OF IONIZABLE COLLOID FORMING DRUGS WITH NUCLEIC ACIDS” (THE GOVERNING COUNCIL OF THE UNIVERSITY OF TORONTO, priority 2023, published 2025):
Several values for one entry are separate records, joined by “and”; a condition that tells them apart may be missing. Equal entries are not always repeated.

Tests used:
[1] = Hydrodynamic diameter and polydispersity index by dynamic light scattering; assay type: physicochemical
Text: (§1) [NT] antisense (SEQ ID NO: 2): [NT] where “d” denotes a DNA base), siFLuc-2 (sense (SEQ ID NO: 3): [NT] antisense (SEQ ID NO: 4): [NT] where “d” denotes a DNA base and “m” indicates a 2'-O-methyl RNA base), sinLuc (sense (SEQ ID NO: 5): [NT] antisense SEQ ID NO: 6): [NT] where “d” denotes a DNA base), […]1 (sense (SEQ ID NO: 7): [NT] antisense (SEQ ID NO: 8): [NT] where “d” denotes a DNA base and “m” indicates a 2'-O-methyl RNA base), siNT (sense (SEQ ID NO: 9): [NT] antisense (SEQ ID NO: 10): [NT] where “d” denotes a DNA base and “m” indicates a 2'-O-methyl RNA base), mFLuc (EZ Cap Firefly Luciferase mRNA (5-moUTP), ApexBio), rRNA or RNA from Torula utilis yeast (T.U. RNA) was diluted in citrate buffer (50 or 25 mM, pH 4), malate buffer (25 mM, pH 4.0) or acetate buffer (25 mM, pH 4.0). A lipid/drug mix concentration of 5.5 mM was used with a total flow rate of 9 mL/min at a 3:1 ratio of aqueous to organic phase. […] After formulation, buffer exchange into PBS or Tris-buffered saline (TBS; pH 8.5) was performed using Amicon Ultra-4 centrifugal filters (molecular weight cut-off 10 kDa). Hydrodynamic diameter, polydispersity index (PDI), and scattering intensity were measured by dynamic light scattering (DLS) using a DynaPro Plate Reader II (Wyatt Technologies). The instrument was configured with a 60 mW 830 nm laser and a detector angle of 158°. A 25 μL sample of each formulation was pipetted into each well of a 384-well plate and measured with 20 acquisitions per sample at 25° C. […] Quant-iT RiboGreen reagent was added, and fluorescence intensity was quantified using a Tecan Infinite […] plate reader.

[2] = RNA encapsulation efficiency (modified Quant-iT RiboGreen assay) and loading; assay type: physicochemical
Text: as §1

SKOV3 cells = assay: Cellular uptake of DiD-labelled nanoparticles by fluorescence microscopy; assay type: cell-based; details: with DOPC or DSPE; 20 nM T.U. RNA, 3 h
Procedure: 2.5-5.0×10^3 SKOV3 cells or 1.0×10^4 T47D cells in 25 μL were plated in each well of a 384-well plate (Greiner Bio-One 781097) and allowed to adhere overnight. For endocytosis blocking studies, cells were washed once with Hank's Balanced Salt Solution (HBSS), and then fresh media containing an endocytosis blocker was added and plates were incubated at 37° C. for 30 min prior to dosing. For ApoE supplementation studies and endocytosis-blocking studies, serum free media, serum free media supplemented with ApoE (1.5 μg/mL), complete media, or complete media with hydroxydynasore (20 μM) was added for 30 min prior to dosing). […] The plate was incubated at 37° C. for 3 h after which the media was removed, and the cells were washed with HBSS, fixed for 15 min with 4% (m/v) PFA in PBS, and stained for 15 min with 5 μg/mL Hoechst in PBS before imaging by wide-field fluorescence microscopy imaging as described below.
Fluorescence images were acquired using a Zeiss Apotome Live Cell System (Axio Observer Z.1 inverted fluorescence microscope) with a long working distance 40× Plan Neofluor objective (NA=0.6, Carl Zeiss Canada), and X-Cite 120 LED fluorescence lamp (Lumen Dynamics), and an […]

[3] = no cholesterol versus standard formulation

With `Fc1ccc(-n2cc(CCCCN3CCC4(CC3)OCc3ccccc34)c3ccccc32)cc1` [siramesine, reference compound] the “increase in particle size on removal of cholesterol” value [1, 3] was 4 fold, the particle size ([1]; siRNA, standard formulation) was roughly 100 nm and the siRNA encapsulation efficiency ([2]; natively ionizable drug in place of fulvestrant analog, standard formulation) was ~85% and ~95%. For the same compound, the “loss of encapsulated siRNA on removal of cholesterol” value [2, 3] was roughly 70%, the “nanoparticle formation with RNA cargos of varying molecular weight” value ([2]; siRNA, T.U. RNA, rRNA, mRNA) was “form nanoparticles encapsulating a range of RNA cargos” and the “uptake relative to DSPC-based nanoparticles” value (SKOV3 cells) was “significantly improve uptake”.
